Measurements from ChEMBL document CHEMBL5506022, “Discovery of Novel Dual Inhibitors Targeting Mutant IDH1 and NAMPT for the Treatment of Glioma with IDH1Mutation” (J Med Chem, 2024).
The source made the active and inactive calls. The calls are words filed in the database; no cut-off is given here.

Tests used:
[1] = target: T1, Nicotinamide phosphoribosyltransferase (Homo sapiens, UniProt P43490); format: cell-based; conditions: U-87 MG, dose 0.5-2 µM, time 48.0 hrs
[2] = target: Isocitrate dehydrogenase [NADP], mitochondrial (Homo sapiens, UniProt P48735, R140Q); assay: Inhibition of IDH2 R140Q mutant (unknown origin) using alpha-ketoglutarate as substrate incubated in presence of NADPH by Envision multimode plate reader analysis
Sequence of Isocitrate dehydrogenase [NADP], mitochondrial (Homo sapiens, UniProt P48735, R140Q) (P48735 40-452 R140Q limits assumed): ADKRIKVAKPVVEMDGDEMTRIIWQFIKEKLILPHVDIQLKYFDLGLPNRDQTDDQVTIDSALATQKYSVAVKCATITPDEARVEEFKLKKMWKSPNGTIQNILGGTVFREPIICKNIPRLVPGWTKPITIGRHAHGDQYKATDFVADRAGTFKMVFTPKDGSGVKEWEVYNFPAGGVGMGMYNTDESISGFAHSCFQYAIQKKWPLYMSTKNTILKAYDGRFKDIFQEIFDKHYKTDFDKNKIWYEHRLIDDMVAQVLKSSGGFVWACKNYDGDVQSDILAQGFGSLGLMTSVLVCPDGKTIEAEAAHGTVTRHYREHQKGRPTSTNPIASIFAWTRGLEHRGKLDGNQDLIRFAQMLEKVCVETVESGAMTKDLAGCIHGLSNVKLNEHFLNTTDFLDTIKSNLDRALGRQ

U-87 MG [3] = format: functional, Homo sapiens, U-87MG ATCC; conditions: dose 0.5 µM; time 48 hrs
U-87MG ATCC [4] = format: functional, cell-based; conditions: Homo sapiens, dose 0.5-2 µM, time 24.0 hrs
U-87 MG [5] = format: functional, Homo sapiens, U-87MG ATCC; conditions: dose 10 mg/kg; route iv; time 35 day
[6] = Tmax in Sprague-Dawley rat at 10 mg/kg, po measured after 24 hrs by LC-MS/MS analysis; format: ADME, organism-based; conditions: in vivo
[7] = target: T2, Isocitrate dehydrogenase [NADP], mitochondrial (Homo sapiens, UniProt P48735); assay: Inhibition of wildtype IDH2 (unknown origin) […] by Envision multimode plate reader analysis
T2 sequence (P48735 whole entry): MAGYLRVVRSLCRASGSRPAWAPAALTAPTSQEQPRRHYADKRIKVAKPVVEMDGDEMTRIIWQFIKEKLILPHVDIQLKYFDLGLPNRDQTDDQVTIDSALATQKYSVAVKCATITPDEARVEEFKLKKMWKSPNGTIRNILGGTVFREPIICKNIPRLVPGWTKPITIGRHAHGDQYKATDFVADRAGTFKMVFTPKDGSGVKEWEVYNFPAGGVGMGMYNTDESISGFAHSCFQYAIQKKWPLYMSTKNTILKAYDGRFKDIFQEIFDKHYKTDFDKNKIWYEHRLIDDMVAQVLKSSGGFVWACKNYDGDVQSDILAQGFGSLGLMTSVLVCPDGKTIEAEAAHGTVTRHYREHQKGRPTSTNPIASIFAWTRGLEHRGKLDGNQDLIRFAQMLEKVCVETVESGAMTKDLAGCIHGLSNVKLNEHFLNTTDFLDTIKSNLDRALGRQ

[8] = AUC in ICR mouse plasma at 5 mg/kg, iv measured after 24 hrs by LC-MS/MS analysis; format: ADME, organism-based
U-87 MG [9] = format: functional, U-87MG ATCC; conditions: Homo sapiens, time 48 hrs, read-out: Activity
U-87MG ATCC [10] = format: functional, cell-based; conditions: Homo sapiens, dose 0.5-2 µM, time 48.0 hrs
[11] = AUC (0 to infinity) in Sprague-Dawley rat at 1 mg/kg, iv measured after 24 hrs by LC-MS/MS analysis; format: ADME, organism-based; conditions: in vivo
U-87 MG [12] = assay: Antiproliferative activity against human U-87 MG cells harboring wildtype IDH1 assessed as inhibition of cell growth incubated for 72 hrs by CCK8 assay; format: functional, cell-based, U-87MG ATCC
U-87MG ATCC [13] = format: functional, cell-based; conditions: Homo sapiens, dose 0.5-2 µM, time 24.0 hrs; remark: listed apart in the source
U-87MG ATCC [14] = format: functional, cell-based; conditions: Homo sapiens, dose 0.5-2 µM, time 24.0 hrs; remark: listed apart in the source
U-87 MG [15] = format: functional, Homo sapiens, U-87MG ATCC; conditions: dose 20 mg/kg; route iv; time 35 day
[16] = Cmax in Sprague-Dawley rat at 10 mg/kg, po measured after 24 hrs by LC-MS/MS analysis; format: ADME, organism-based; conditions: in vivo
[17] = Ratio of drug concentration in ICR mouse brain to plasma at 5 mg/kg, iv measured after 24 hrs by LC-MS/MS analysis; format: ADME, organism-based; conditions: read-out: BPR
U-87 MG [18] = format: functional, cell-based, U-87MG ATCC; conditions: Homo sapiens, 72 h
U-87 MG [19] = assay: Antiproliferative activity against human U-87 MG cells harboring wildtype IDH1 assessed as inhibition of cell growth incubated for 48 hrs by CCK8 assay; format: functional, cell-based, U-87MG ATCC
[20] = Oral bioavailability in Sprague-Dawley rat at 10 mg/kg measured after 24 hrs by LC-MS/MS analysis; format: ADME, organism-based; conditions: in vivo
[21] = target: Isocitrate dehydrogenase [NADP], mitochondrial (Homo sapiens, UniProt P48735, R172K); assay: Inhibition of IDH2 R172K mutant (unknown origin) using alpha-ketoglutarate as substrate incubated in presence of NADPH by Envision multimode plate reader analysis
Sequence of Isocitrate dehydrogenase [NADP], mitochondrial (Homo sapiens, UniProt P48735, R172K) (P48735 40-452 R172K limits assumed): as the sequence (P48735 40-452 R140Q limits assumed) above, with Q101R, R133K counted along it

[22] = AUC (0 to t) in Sprague-Dawley rat at 10 mg/kg, po measured after 24 hrs by LC-MS/MS analysis; format: ADME, organism-based; conditions: in vivo
[23] = Permeability of compound by PAMPA-BBB assay; format: ADME; conditions: read-out: permeability
U-87 MG [24] = format: functional, Homo sapiens, U-87MG ATCC; conditions: dose 40 mg/kg; route iv; time 35 day
[25] = Acute toxicity in ICR mouse at 400 mg/kg, po measured for 7 days; format: organism-based; conditions: in vivo, 168 h, time 7 day
U-87 MG [26] = format: functional, Homo sapiens, U-87MG ATCC; conditions: dose 2 µM; time 48 hrs
[27] = target: T1, Nicotinamide phosphoribosyltransferase; format: cell-based; conditions: U-87 MG, dose 0.5 µM, time 6.0 hrs
[28] = AUC (0 to t) in Sprague-Dawley rat at 1 mg/kg, iv measured after 24 hrs by LC-MS/MS analysis; format: ADME, organism-based; conditions: in vivo

T1 sequence (P43490 whole entry, looked up): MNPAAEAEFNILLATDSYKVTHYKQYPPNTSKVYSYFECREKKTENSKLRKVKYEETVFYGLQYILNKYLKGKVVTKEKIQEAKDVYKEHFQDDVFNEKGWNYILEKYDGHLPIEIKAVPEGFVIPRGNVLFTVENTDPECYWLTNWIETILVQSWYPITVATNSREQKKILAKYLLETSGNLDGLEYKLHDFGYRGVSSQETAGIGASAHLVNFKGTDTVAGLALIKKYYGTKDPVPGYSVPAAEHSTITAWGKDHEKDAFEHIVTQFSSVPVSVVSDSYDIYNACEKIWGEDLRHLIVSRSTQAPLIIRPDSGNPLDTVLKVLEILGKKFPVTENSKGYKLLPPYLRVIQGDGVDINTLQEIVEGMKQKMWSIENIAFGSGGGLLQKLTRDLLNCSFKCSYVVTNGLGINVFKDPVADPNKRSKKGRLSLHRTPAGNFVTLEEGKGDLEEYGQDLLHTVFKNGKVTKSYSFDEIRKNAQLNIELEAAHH

SMILES: C[C@H](Nc1nccc(N2C(=O)OC[C@@H]2[C@H](C)F)n1)c1ccc(-c2ccc(NC(=O)COc3cccnc3)cc2)cc1
- inhibition [1]: Dose-Dependent Effect
- IC50 [2]: > 100000 nM
- Activity (U-87 MG [3]): 2.84%
- Activity (U-87MG ATCC [4]): Active
- MST (U-87 MG [5]): 25.5 days
- Tmax [6]: 45 min
- IC50 [7]: > 100000 nM
- AUC at 24 h [8]: 20300 ng·h/mL
- viability at 2 µM (U-87 MG [9]): 34.7%
- Activity (U-87MG ATCC [10]): inactive
- AUC(0-inf) [11]: 1940 ng·h/mL
- IC50 (U-87 MG [12]): 420 nM
- Activity (U-87MG ATCC [13]): Active
- Activity (U-87MG ATCC [14]): Active
- MST (U-87 MG [15]): 30.5 days
- Cmax [16]: 867 ng/mL
- Kp at 24 h [17]: 0.76
- IC50 (U-87 MG [18]): 320 nM
- IC50 (U-87 MG [19]): 770 nM
- bioavailability [20]: 4.75%
- IC50 [21]: > 100000 nM
- AUC(0-t) at 24 h [22]: 919 ng·h/mL
- Papp [23]: 4.07 ×10⁻⁶ cm/s
- MST (U-87 MG [24]): 34 days
- Activity [25]: Non-Toxic
- Activity (U-87 MG [26]): 35.4%
- Activity [27]: Active
- AUC(0-t) at 24 h [28]: 1930 ng·h/mL
